Common to all, as to assay: DTP human tumour cell line panel, 48 h
For assay [1], the system named is 786-0 renal.
Assay [2] deals with CCRF-CEM leukemia.
Assay [3] deals with MDA-MB-435.
Assay [4] has as its system NCI-H226 lung.
Assay [5] deals with RPMI-8226 leukemia.
In assay [6] the test system is SF-268 CNS.
Assay [7] has as its system SF-295 CNS.
Assay [8] relates to SK-MEL-2 melanoma.
In assay [9] the test system is SN12C renal.
For assay [10], the system named is SNB-19 CNS.

In PubChem BioAssay (NCI) one finds GI50 and TGI data, which are given here for 8 compounds.

Several values for one entry are separate records, joined by “and”; a condition that tells them apart may be missing. Equal entries are not always repeated.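 1) Cells in 96-well plates. 2) Compound, 48 h, 5 concentrations. 3) Linear interpolation between surrounding doses. 4) Unreached endpoint = highest concentration. The concentration for 50% growth inhibition is given as GI50. TGI marks complete inhibition of growth.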

With `C[C@H]1CNC(=O)c2cnn3ccc(nc23)N[C@H](C)c2cc(F)ccc2O1`, the GI50 (in general, the concentration that inhibits growth by half) in assay [1] is 495 nM; in assay [2], 444 nM; in assay [3], 8840 nM; in assay [4] it was 1030 nM; in assay [5], 10300 nM; in [6], 809 nM. The GI50 is 595 nM in assay [7], 3540 nM in [8], 815 nM in [9] and 2170 nM in [10]. Besides, the TGI (in general, the concentration at which net growth stops) in assay [1] was 2110 nM; in assay [2] it was above 67200 nM; in assay [3], above 91200 nM; in assay [4], 3830 nM; in assay [5], 41600 nM; in [6], 3790 nM. Moreover, the TGI in assay [7] is 8150 nM; in assay [8] it was 24000 nM; in assay [9], 12800 nM; in assay [10], 47400 nM.

For the compound `C=C1C(=O)O[C@H]2[C@H]1CC/C(COC(=O)OC/C1=C/CC[C@@]3(C)O[C@H]3[C@H]3OC(=O)[C@@H](CN(C)C)[C@@H]3CC1)=C\CC[C@@]1(C)O[C@@H]21`, the GI50 was 1310 nM in [1]; 247 nM in assay [2]; 1810 nM in assay [3]; 2650 nM in assay [4]; 372 nM in assay [5]; 3070 nM in assay [6]. Besides, the GI50 in assay [7] was 12100 nM; in [8] it was 2270 nM; in assay [9], 2790 nM; in assay [10] it was 4670 nM. The TGI in assay [1] was found to be 2790 nM; in assay [2], 733 nM; in assay [3], 4310 nM; in assay [4], 10000 nM; in [5], 1940 nM; in assay [6], 13700 nM. For the same compound, the TGI in [7] stood at 24900 nM; in assay [8] it was 5880 nM; in assay [9], 10200 nM; in [10] it was 18300 nM.

`CCCCCCCCCCCCCCCCCCNC(=S)/N=C/c1c(O)c2ccccc2[nH]c1=O`: the TGI worked out at 29800 nM in assay [1]; 42300 nM in assay [3]; 63300 nM in [4]; 29500 nM in assay [6]; 47900 nM in [7]; 52200 nM in assay [8]. The results for the TGI in assay [9] and in assay [10] were 41000 nM and 36300 nM, respectively.

For `Nc1nc(SCc2ccccc2Cl)cc(C(=O)O)n1`, the TGI in assay [1], in [2], in assay [3], in assay [4], in assay [5] and in assay [6] was above 100000 nM throughout. The TGI in assay [7], in assay [8], in [9] and in assay [10] was above 100000 nM each time.

With `COc1cc(C(=O)O[C@H](C(=O)NCCN(C)CCNC(=O)[C@@H](OC(=O)c2cc(OC)cc3c(C)cccc23)[C@]2(C)CO2)[C@]2(C)CO2)c2cccc(C)c2c1`, the TGI in [1] is 179 nM; in assay [3], 39.8 nM; in assay [4], 721 nM; in assay [5] it was 5850 nM; in assay [6], 929 nM; in assay [7] it was 182 nM. Moreover, the TGI in [8] was above 100000 nM; in [9], 300 nM; in assay [10], 1180 nM. The GI50 in [2] was below 10 nM; in [3], below 10 nM; in assay [4] it was 182 nM; in [5], 246 nM; in assay [6], below 10 nM; in assay [7] it was below 33.7 nM. Moreover, the GI50 was 253 nM in [8], below 30.8 nM in assay [9] and 265 nM in assay [10].

With `CCCCCCCCCCCCCCCCOP(=O)([O-])OCC[N+](C)(C)C`, the GI50 in assay [1] is 2330 nM; in [2], 1090 nM and 9720 nM; in [3], 2000 nM; in assay [4], 1590 nM; in assay [5], 390 nM; in [6], 2930 nM. In addition, the values for the GI50 in [8], in [9] and in [10] were 2360 nM, 2740 nM and 1210 nM, respectively. In addition, the TGI in [1] is 7760 nM and 25400 nM; in [3], 5230 nM and 39300 nM; in [6] it was 13700 nM and 52700 nM; in assay [7] it was 53000 nM; in assay [8], 7050 nM and 46900 nM; in assay [9], 10700 nM and 56600 nM.

In the case of `CCC1(OC(=O)CN)C(=O)OCc2c1cc1n(c2=O)Cc2cc3ccccc3nc2-1` (stereo not given), the GI50 is 5.63 nM in assay [1]; 1.16 nM in assay [2]; 130 nM in [3]; 15.1 nM in [4]; 31 nM in assay [5]; 6.89 nM in assay [6]. Besides, the GI50 in assay [7] is 2.49 nM; in [8], 492 nM; in assay [9], 7.15 nM; in [10] it was 12.8 nM. For the same compound, the TGI was 194 nM and 161 nM in assay [1]; 534 nM and 677 nM in assay [2]; 348 nM and 504 nM in assay [3]; 150 nM and 63.8 nM in [4]; 209 nM in assay [5]; 14200 nM in assay [6]. Further, the TGI in assay [8] was 932 nM and 407 nM; in assay [9], 640 nM; in [10], 4910 nM.

Take `O=C(Nc1ccc(F)cc1)Nc1ccc(Br)c(C(F)(F)F)c1`: the GI50 in [1] was 2420 nM; in [2] it was 2270 nM; in assay [3], 2400 nM; in assay [4], 2730 nM; in [5], 1030 nM; in assay [6] it was 2970 nM. Further, the GI50 in assay [7] was 1390 nM; in assay [8] it was 2380 nM; in assay [9] it was 2910 nM; in assay [10] it was 3420 nM. Moreover, the TGI in assay [1] was determined as 8170 nM; in assay [2] it was 6530 nM; in assay [3], 8590 nM; in assay [4], 11100 nM; in assay [5], 4960 nM; in assay [6] it was 13200 nM. The TGI in assay [7] was determined as 5620 nM; in assay [8] it was 6190 nM; in assay [9], 11500 nM; in assay [10], 15600 nM.
